Laboratory results taken from patent publication US11608335B2, “Somatostatin modulators and uses thereof” (CRINETICS PHARMACEUTICALS, INC., priority 2018, dated 2023).
Like-named read-outs stand apart in the source and are kept apart here.

Assays:
[1] = target: T1, human somatostatin receptor subtype 2 (Homo sapiens, UniProt P30874); test: cAMP assay for SST2R (inhibition of cAMP via human SST2 receptor); format: cell-based; details: Table B, read-out: SST2 potency
T1 construct: expressed in transfected cells
T1 sequence (P30874 whole entry): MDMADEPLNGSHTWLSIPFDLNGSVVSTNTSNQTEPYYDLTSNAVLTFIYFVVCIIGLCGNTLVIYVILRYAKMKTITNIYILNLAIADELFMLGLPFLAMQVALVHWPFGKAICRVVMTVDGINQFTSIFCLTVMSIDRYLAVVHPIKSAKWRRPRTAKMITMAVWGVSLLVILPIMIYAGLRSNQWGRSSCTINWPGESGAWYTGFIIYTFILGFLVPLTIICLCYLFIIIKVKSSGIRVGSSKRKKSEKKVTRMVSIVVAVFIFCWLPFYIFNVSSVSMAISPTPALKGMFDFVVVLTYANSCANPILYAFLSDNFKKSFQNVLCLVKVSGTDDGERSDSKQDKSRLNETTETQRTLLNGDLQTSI
Source text: cAMP Assay Protocol for SST2R:

[2] = target: human somatostatin receptor subtype 5 (Homo sapiens, UniProt P35346); test: cAMP assay for SST5R (inhibition of cAMP via human SST5 receptor); details: for Fold selectivity for SST5 vs SST2: SST5 over SST2, class symbols
Sequence of human somatostatin receptor subtype 5 (P35346 whole entry): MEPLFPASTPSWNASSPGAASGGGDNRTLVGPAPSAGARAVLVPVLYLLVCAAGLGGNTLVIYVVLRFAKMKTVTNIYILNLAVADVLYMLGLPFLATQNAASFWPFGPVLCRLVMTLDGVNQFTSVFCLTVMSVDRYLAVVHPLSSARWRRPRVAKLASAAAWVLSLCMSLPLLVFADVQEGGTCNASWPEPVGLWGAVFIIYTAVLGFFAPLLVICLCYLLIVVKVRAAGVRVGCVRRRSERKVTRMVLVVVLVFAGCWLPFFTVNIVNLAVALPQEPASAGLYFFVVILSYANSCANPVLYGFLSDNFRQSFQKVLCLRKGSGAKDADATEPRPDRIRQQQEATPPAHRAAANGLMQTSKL

[3] = read-out: SST5 potency, inhibition of cAMP via human SST5 receptor, Table B

Compound	EC50 [1] [nM]	EC50 [2] [nM]	Fold selectivity for SST5 vs SST2 [2]	EC50 [2, 3] [nM]
N#Cc1cc(-c2cncc(-c3nc4ccc(F)c(F)c4[nH]3)c2N2CC[C@H](N)C2)ccc1F [Compound 2-52, 5-{4-[(3S)-3-aminopyrrolidin-1-yl]-5-(4,5-difluoro-1H-1,3-benzodiazol-2-yl)pyridin-3-yl}-2-fluorobenzonitrile]	100 to 1000	< 10	+++ (+++=≥500)	< 10
N#Cc1cccc(-c2cncc(-c3nc4c(F)cccc4[nH]3)c2N2CCC(N)(CO)C2)c1 (stereo not drawn) [Compound 2-54, 3-{4-[3-amino-3-(hydroxymethyl)pyrrolidin-1-yl]-5-(4-fluoro-1H-1,3-benzodiazol-2-yl)pyridin-3-yl}benzonitrile]	100 to 1000	< 10	+++ (+++=≥500)	< 10
N#Cc1cccc(-c2cncc(-c3nc4cccc(Br)c4[nH]3)c2N2CC[C@H](N)C2)c1 [Compound 2-57, 3-{4-[(3S)-3-aminopyrrolidin-1-yl]-5-(4-bromo-1H-1,3-benzodiazol-2-yl)pyridin-3-yl}benzonitrile]	100 to 1000	< 10	+++ (+++=≥500)	< 10
N#Cc1cc(-c2cncc(-c3nc4cccc(C(F)(F)F)c4[nH]3)c2N2CC[C@H](N)C2)ccc1F [Compound 2-60, 5-{4-[(3S)-3-aminopyrrolidin-1-yl]-5-[4-(trifluoromethyl)-1H-1,3-benzodiazol-2-yl]pyridin-3-yl}-2-fluorobenzonitrile]	100 to 1000	< 10	++ (++=100 to 499)	< 10
Cc1cccc2nc(-c3cncc(-c4cc(F)cc(C(N)=O)c4)c3N3CC[C@H](N)C3)[nH]c12 [Compound 2-65, 3-{4-[(3S)-3-aminopyrrolidin-1-yl]-5-(4-methyl-1H-1,3-benzodiazol-2-yl)pyridin-3-yl}-5-fluorobenzamide]	100 to 1000	< 10	++ (++=100 to 499)	< 10
Cn1c(-c2cncc(-c3cccc(C#N)c3)c2N2CC[C@H](N)C2)nc2cccc(Cl)c21 [Compound 2-76, 3-{4-[(3S)-3-aminopyrrolidin-1-yl]-5-(7-chloro-1-methyl-1H-1,3-benzodiazol-2-yl)pyridin-3-yl}benzonitrile]	100 to 1000	< 10	+++ (+++=≥500)	< 10
Cc1cc(F)cc2nc(-c3cncc(-c4cc(F)cc(C#N)c4)c3N3CC[C@H](N)C3)[nH]c12 [Compound 2-79, 3-{4-[(3S)-3-aminopyrrolidin-1-yl]-5-(6-fluoro-4-methyl-1H-1,3-benzodiazol-2-yl)pyridin-3-yl}-5-fluorobenzonitrile]	100 to 1000	< 10	++ (++=100 to 499)	< 10
Cc1cccc2nc(-c3cncc(-c4cccc(C#N)c4)c3N3CC[C@H](N)C3)[nH]c12 [Compound 2-80, 3-{4-[(3S)-3-aminopyrrolidin-1-yl]-5-(4-methyl-1H-1,3-benzodiazol-2-yl)pyridin-3-yl}benzonitrile]	100 to 1000	< 10	+++ (+++=≥500)	< 10
Cc1c(F)ccc2nc(-c3cncc(-c4cc(F)cc(C#N)c4)c3N3CC[C@H](N)C3)[nH]c12 [Compound 2-86, 3-{4-[(3S)-3-aminopyrrolidin-1-yl]-5-(5-fluoro-4-methyl-1H-1,3-benzodiazol-2-yl)pyridin-3-yl}-5-fluorobenzonitrile]	100 to 1000	< 10	++ (++=100 to 499)	< 10
Cc1ccc(F)c2[nH]c(-c3cncc(-c4ccnc(C#N)c4)c3N3CC[C@H](N)C3)nc12 [Compound 2-106, 4-[(3S)-3-aminopyrrolidin-1-yl]-5-(7-fluoro-4-methyl-1H-1,3-benzodiazol-2-yl)-[3,4′-bipyridine]-2′-carbonitrile]	100 to 1000	< 10	+++ (+++=≥500)	< 10
Cc1ccnc2nc(-c3cncc(-c4cc(F)cc(C#N)c4)c3N3CCC(C)(N)C3)[nH]c12 (stereo not drawn) [Compound 2-108, 3-[4-(3-amino-3-methylpyrrolidin-1-yl)-5-{7-methyl-1H-imidazo[4,5-b]pyridin-2-yl}pyridin-3-yl]-5-fluorobenzonitrile]	100 to 1000	< 10	++ (++=100 to 499)	< 10
N#Cc1cc(F)cc(-c2cncc(-c3nc4ccccc4[nH]3)c2N2CC[C@H](N)C2)c1 [Compound 2-109, 3-{4-[(3S)-3-aminopyrrolidin-1-yl]-5-(1H-1,3-benzodiazol-2-yl)pyridin-3-yl}-5-fluorobenzonitrile]	100 to 1000	< 10	++ (++=100 to 499)	< 10
Cn1c(-c2cncc(-c3cc(F)cc(C#N)c3)c2N2CC[C@H](N)C2)nc2c(Cl)cccc21 [Compound 2-116, 3-{4-[(3S)-3-aminopyrrolidin-1-yl]-5-(4-chloro-1-methyl-1H-1,3-benzodiazol-2-yl)pyridin-3-yl}-5-fluorobenzonitrile]	> 1000	< 10	+++ (+++=≥500)	< 10
CC1(N)CCN(c2c(-c3ccnc(C#N)c3)cncc2-c2nc3cccc(F)c3[nH]2)C1 (stereo not drawn) [Compound 2-121, 4-(3-amino-3-methylpyrrolidin-1-yl)-5-(4-fluoro-1H-1,3-benzodiazol-2-yl)-[3,4′-bipyridine]-2′-carbonitrile]	100 to 1000	< 10	+++ (+++=≥500)	< 10
Cc1ccnc2nc(-c3cncc(-c4cccc(C#N)c4)c3N3CCC(C)(N)C3)[nH]c12 (stereo not drawn) [Compound 2-122, 3-[4-(3-amino-3-methylpyrrolidin-1-yl)-5-{7-methyl-1H-imidazo[4,5-b]pyridin-2-yl}pyridin-3-yl]benzonitrile]	100 to 1000	< 10	++ (++=100 to 499)	< 10
Cc1cccc2nc(-c3cncc(-c4ccnc(C#N)c4)c3N3CCC(C)(N)C3)[nH]c12 (stereo not drawn) [Compound 2-123, 4-(3-amino-3-methylpyrrolidin-1-yl)-5-(4-methyl-1H-1,3-benzodiazol-2-yl)-[3,4′-bipyridine]-2′-carbonitrile]	10 to 100	< 10	+++ (+++=≥500)	< 10
Cc1cccc2nc(-c3cncc(-c4ccc(F)c(C(N)=O)c4)c3N3CCC(C)(N)C3)[nH]c12 (stereo not drawn) [Compound 2-124, 5-[4-(3-amino-3-methylpyrrolidin-1-yl)-5-(4-methyl-1H-1,3-benzodiazol-2-yl)pyridin-3-yl]-2-fluorobenzamide]	100 to 1000	< 10	+++ (+++=≥500)	< 10
Cc1ccc(F)c2nc(-c3cncc(-c4ccc(F)c(C(N)=O)c4)c3N3CCC(C)(N)C3)[nH]c12 (stereo not drawn) [Compound 2-125, 5-[4-(3-amino-3-methylpyrrolidin-1-yl)-5-(7-fluoro-4-methyl-1H-1,3-benzodiazol-2-yl)pyridin-3-yl]-2-fluorobenzamide]	100 to 1000	< 10	+++ (+++=≥500)	< 10
Cc1cccc2[nH]c(-c3cncc(-c4cc(F)c(F)c(C(N)=O)c4)c3N3CCC(C)(N)C3)nc12 (stereo not drawn) [Compound 2-127, 5-[4-(3-Amino-3-methylpyrrolidin-1-yl)-5-(4-methyl-1H-1,3-benzodiazol-2-yl)pyridin-3-yl]-2,3-difluorobenzamide]	100 to 1000	< 10	++ (++=100 to 499)	< 10
Cc1cccc2nc(-c3cncc(-c4ccnc(C#N)c4)c3N3CC[C@H](N)C3)[nH]c12 [Compound 2-128, 4-[(3S)-3-aminopyrrolidin-1-yl]-5-(4-methyl-1H-1,3-benzodiazol-2-yl)-[3,4′-bipyridine]-2′-carbonitrile]	100 to 1000	< 10	+++ (+++=≥500)	< 10
Cn1c(-c2cncc(-c3ccc(F)c(C#N)c3)c2N2CC[C@H](N)C2)nc2c(Cl)cccc21 [Compound 2-131, 5-{4-[(3S)-3-aminopyrrolidin-1-yl]-5-(4-chloro-1-methyl-1H-1,3-benzodiazol-2-yl)pyridin-3-yl}-2-fluorobenzonitrile]	> 1000	10 to 100	+++ (+++=≥500)	10 to 100
Cc1cccc2c1nc(-c1cncc(-c3ccc(F)c(C#N)c3)c1N1CC[C@H](N)C1)n2C [Compound 2-132, 5-{4-[(3S)-3-aminopyrrolidin-1-yl]-5-(1,4-dimethyl-1H-1,3-benzodiazol-2-yl)pyridin-3-yl}-2-fluorobenzonitrile]	> 1000	< 10	+++ (+++=≥500)	< 10
Cc1cccc2nc(-c3cncc(-c4cc(F)cc(C#N)c4)c3N3CC[C@@](N)(CO)C3)[nH]c12 [Compound 2-135, 3-{4-[(3S)-3-amino-3-(hydroxymethyl)pyrrolidin-1-yl]-5-(4-methyl-1H-1,3-benzodiazol-2-yl)pyridin-3-yl}-5-fluorobenzonitrile]	10 to 100	< 10	++ (++=100 to 499)	< 10
Cc1cccc2nc(-c3cncc(-c4cc(F)c(F)c(C#N)c4)c3N3CC[C@H](N)C3)[nH]c12 [Compound 2-139, 5-{4-[(3S)-3-aminopyrrolidin-1-yl]-5-(4-methyl-1H-1,3-benzodiazol-2-yl)pyridin-3-yl}-2,3-difluorobenzonitrile]	10 to 100	< 10	++ (++=100 to 499)	< 10
